Test results published in US20250345329A1, “HETEROARYL DERIVATIVE COMPOUND AND USES THEREOF” (VORONOI, INC., priority 2022, published 2025).

tested on: Ba/F3 expressing EGFR Del19/T790M/C797S mutations; assay: Inhibitory activity on proliferation of Ba/F3 cell overexpressing EGFR C797S (Cell Titer-Glo); assay type: cell-based; details: Mus musculus, BaF3; 72 hours treatment, cell growth rate vs control; read-out: Ba/F3 (EGFR DTC) GI50
Protocol: <Experimental Example 2> Evaluation of Inhibitory Activity on Proliferation of Ba/F3 Cell Overexpressing EGFR C797S
The following experiments were performed to evaluate the inhibitory activity of the compounds according to the present invention on the proliferation of Ba/F3 expressing EGFR Del19/T790M/C797S mutations.
Ba/F3 cells were cultured in RPMI-1640 medium supplemented with 10% fetal bovine serum (FBS), and 3000 cells were seeded into each well of a white clear bottom 96 well plate (Corning) 24 hours prior to compound treatment. The compounds were diluted in dimethyl sulfoxide (3-fold dilution, total of 12 concentrations) and injected at 1 μl each so that the final concentration was […] to 5 μM. After 72 hours post treatment with compounds, living cells were reacted in a 37° C., CO2 incubator for […], followed by 10 minutes at room temperature using Cell Titer-Glo luminescent cell-viability reagent (Promega), and the luminescence intensity thereof was measured using a reader (SynergyNeo2, Biotek). The result values were calculated as a cell growth rate (%) compared to the control group. GI50 values were calculated using the GraphPad Prism version 8.4.3 (GraphPad software Inc., San Diego) program.

`CC(=O)c1cc(-c2nccc(Nc3cc(NC(C)C)c(C(=O)N4C[C@H](CS(C)(=O)=O)[C@H]4C)cn3)n2)ccc1O` [Example 134, 1-(2-hydroxy-5-(4-((4-(isopropylamino)-5-((2R,3S)-2-methyl-3-((methylsulfonyl)meth-yl)azetidine-1-carbonyl)pyridin-2-yl)amino)pyrimidin-2-yl)phenyl)ethan-1-one] and `CC(C)Nc1cc(Nc2ccnc(-c3ccc(O)c(C=O)c3)n2)ncc1C(=O)N1C[C@H](CS(C)(=O)=O)[C@H]1C` [Example 133, 2-hydroxy-5-(4-((4-(isopropylamino)-5-((2R,3S)-2-methyl-3-((methyl-sulfonyl)meth-yl)azetidine-1-carbonyl)pyridin-2-yl)amino)pyrimidin-2-yl)benzaldehyde] fall in the same range of GI50: 500 to 5000 nM for the first, 500 to 5000 nM for the second.

`CO[C@H]1CCN(c2nccc(Nc3cc(NC(C)C)c(C(=O)N(C)CCN(C)C)cn3)n2)C[C@H]1F` (relative stereo) [Example 29, N-(2-(dimethylamino)ethyl)-6-((2-(cis-3-fluoro-4-methoxypiperidin-1-yl)pyrimidin-4-yl)amino)-4-(isopropylamino)-N-methylnicotinamide] and `COCCN(C)C(=O)c1cnc(Nc2ccnc(N3CC[C@H](OC)[C@H](F)C3)n2)cc1NC(C)C` (relative stereo) [Example 30, 6-((2-(cis-3-fluoro-4-methoxypiperidin-1-yl)pyrimidin-4-yl)amino)-4-(isopropylamino)-N-(2-methoxyethyl)-N-methylnicotinamide] fall in the same range of GI50: 500 to 5000 nM for the first, 500 to 5000 nM for the second.

`C[C@H]1CCOc2c(cnn2C)-c2nccc(n2)Nc2cc(c(C(=O)NCCCC(F)(F)F)cn2)N1` [Example 88, (S)-1^1,6-dimethyl-N-(4,4,4-trifluorobutyl)-1^1H-9-oxa-3,5-diaza-2(2,4)-pyrimidina-4(2,4)-pyridina-1(4,5)-pyrazolacyclo-nonaphane-4^5-carboxamide] and `C[C@H]1CCOc2c(cnn2C)-c2nccc(n2)Nc2cc(c(C(=O)NCCC(F)(F)F)cn2)N1` [Example 89, (S)-1^1,6-dimethyl-N-(3,3,3-trifluoropropyl)-1^1H-9-oxa-3,5-diaza-2(2,4)-pyrimidina-4(2,4)-pyridina-1(4,5)-pyrazolacyclo-nonaphane-4^5-carboxamide] cannot be ordered by GI50: under 500 nM for the first, under 500 nM for the second.

`CO[C@H]1CCN(c2nccc(Nc3cc(NC(C)C)c(C(=O)Nc4cnn(S(=O)(=O)C5CC5)c4)cn3)n2)C[C@H]1F` [Example 33, N-(1-(cyclopropylsulfonyl)-1H-pyrazol-4-yl)-6-((2-(cis-3-fluoro-4-methoxypiperidin-1-yl)pyrimidin-4-yl)amino)-4-(isopropylamino)nico-tinamide] and `CO[C@H]1CCN(c2nccc(Nc3cc(NC(C)C)c(C(=O)NCCS(C)(=O)=O)cn3)n2)C[C@H]1F` [Example 94, 6-((2-((3R,4S)-3-fluoro-4-methoxypiperidin-1-yl)pyrimidin-4-yl)amino)-4-(isopropylamino)-N-(2-(methylsulfonyl)ethyl) nicotinamide] fall in the same range of GI50: 500 to 5000 nM for the first, 500 to 5000 nM for the second.

`CO[C@H]1CCN(c2cc(Nc3ncc(C(=O)NCCCC(F)(F)F)c(NC(C)C)n3)ccn2)C[C@H]1F` [Example 93, 2-((2-((3R,4S)-3-fluoro-4-methoxypiperidin-1-yl)pyridin-4-yl)amino)-4-(isopropylamino)-N-(4,4,4-trifluorobutyl)pyrimi-dine-5-carboxamide] and `CO[C@H]1CCN(c2cc(Nc3ncc(C(=O)NCCS(C)(=O)=O)c(NC(C)C)n3)ccn2)C[C@H]1F` [Example 95, 2-((2-((3R,4S)-3-fluoro-4-methoxypiperidin-1-yl)pyridin-4-yl)amino)-4-(isopropylamino)-N-(2-(methylsulfonyl)ethyl) pyrimidin-5-carboxamide] fall in the same range of GI50: 500 to 5000 nM for the first, 500 to 5000 nM for the second.

First: CC(C)Nc1nc(Nc2ccnc(-c3cnn(S(=O)(=O)C4CC4)c3)c2)ncc1C(=O)NCCCC(F)(F)F [Example 92, 2-((2-(1-(cyclopropylsulfonyl)-1H-pyrazol-4-yl)pyridin-4-yl)amino)-4-(isopropylamino)-N-(4,4,4-trifluorobutyl)pyrimi-din-5-carboxamide]
Second: CC(C)Nc1cc(Nc2ccnc(-c3cnn(S(=O)(=O)C4CC4)c3)n2)ncc1C(=O)NC[C@@H](F)C(C)(C)O [Example 132, (R)-6-((2-(1-(cyclopropylsulfonyl)-1H-pyrazol-4-yl)pyrimidin-4-yl)amino)-N-(2-fluoro-3-hydroxy-3-methylbutyl)-4-(isopropylamino)nico-tinamide]
The GI50 of the first is higher: 500 to 5000 nM for the first, under 500 nM for the second.

First: C[C@H]1CCOc2c(cnn2C)-c2cc(ccn2)Nc2cc(c(C(=O)NCCC(F)(F)F)cn2)N1 [Example 123, (S)-1^1,6-dimethyl-N-(3,3,3-trifluoropropyl)-1^1H-9-oxa-3,5-diaza-2,4(2,4)-dipyridina-1(4,5)-pyrazolacyclo-nonaphane-4^5-carboxamide]
Second: Cc1cc2cc(n1)-c1cnn(C)c1OCC[C@H](C)Nc1cc(ncc1C(=O)NCCC(F)(F)F)N2 [Example 124, (S)-1^1,2^6,6-trimethyl-N-(3,3,3-trifluoropropyl)-1^1H-9-oxa-3,5-diaza-2,4(2,4)-dipyridina-1(4,5)-pyrazolacyclo-nonaphane-4^5-carboxamide]
The GI50 of the first is lower: under 500 nM for the first, 500 to 5000 nM for the second.

`CO[C@H]1CCN(c2nccc(Nc3cc(NC(C)C)c(C(=O)Nc4cc(N5CCN(C)CC5)cc(C(F)(F)F)c4)cn3)n2)C[C@H]1F` [Example 24, 6-((2-(cis-3-fluoro-4-methoxypiperidin-1-yl)pyrimidin-4-yl)amino)-4-(isopropylamino)-N-(3-(4-methylpiperazin-1-yl)-5-(trifluoromethyl)phe-nyl)nicotinamide] and `CO[C@H]1CCN(c2nccc(Nc3cc(NC(C)C)c(C(=O)NCC4CCCC4)cn3)n2)C[C@H]1F` [Example 91, N-(cyclopentylmethyl)-6-((2-(cis-3-fluoro-4-methoxypiperidin-1-yl)pyrimidin-4-yl)amino)-4-(isopropylamino)nico-tinamide] fall in the same range of GI50: 500 to 5000 nM for the first, 500 to 5000 nM for the second.

First: C[C@H]1CCOc2c(cnn2C)-c2nccc(n2)Nc2cc(c(C(=O)Nc3cccc(CS(C)(=O)=O)c3)cn2)N1 [Example 125, (S)-1^1,6-dimethyl-N-(3-((methyl-sulfonyl)meth-yl)phenyl)-1^1H-9-oxa-3,5-diaza-2(2,4)-pyrimidina-4(2,4)-pyridina-1(4,5)-pyrazolacyclo-nonaphane-4^5-carboxamide]
Second: C[C@H]1CCOc2c(cnn2C)-c2nccc(n2)Nc2cc(c(C(=O)Nc3cc(N4CCN(C)CC4)cc(N(C)S(C)(=O)=O)c3)cn2)N1 [Example 114, (S)-1^1,6-dimethyl-N-(3-(N-methyl-methylsulfonami-do)-5-(4-methylpiperazin-1-yl)phenyl)-1^1H-9-oxa-3,5-diaza-2(2,4)-pyrimidina-4(2,4)-pyridina-1(4,5)-pyrazolacyclo-nonaphane-4^5-carboxamide]
The GI50 of the first is higher: 500 to 5000 nM for the first, under 500 nM for the second.

`CC(C)Nc1cc(Nc2ccnc(-c3cnn(C(=O)C4CC4)c3)n2)ncc1C(=O)NCC#N` [Example 87, N-(cyanomethyl)-6-((2-(1-(cyclo-propanecarbonyl)-1H-pyrazol-4-yl)pyrimidin-4-yl)amino)-4-(isopropylamino)nico-tinamide] and `COCCN(C)C(=O)c1cnc(Nc2ccnc(-c3cnn(S(=O)(=O)C4CC4)c3)n2)cc1NC(C)C` [Example 27, 6-((2-(1-(cyclopropylsulfonyl)-1H-pyrazol-4-yl)pyrimidin-4-yl)amino)-4-(isopropylamino)-N-(2-methoxyethyl)-N-methylnicotinamide] fall in the same range of GI50: 500 to 5000 nM for the first, 500 to 5000 nM for the second.

`CC(C)S(=O)(=O)CC1CN(C(=O)c2cnc3cc2N[C@@H](C)CCOc2c(cnn2C)-c2nccc(n2)N3)C1` [Example 121, (S)-(1^1,6-methyl-1^1H-9-oxa-3,5-diaza-2(2,4)-pyrimidina-4(2,4)-pyridina-1(4,5)-pyrazolacyclo-nonaphane-4^5-yl)(3-((isopropylsulfonyl)methyl)azetidin-1-yl)methanone] and `C[C@H]1CCOc2c(cnn2C)-c2nccc(n2)Nc2cc(c(C(=O)NCC(F)(F)C(F)(F)F)cn2)N1` [Example 103, (S)-1^1,6-dimethyl-N-(2,2,3,3,3-pentafluoropropyl)-1^1H-9-oxa-3,5-diaza-2(2,4)-pyrimidina-4(2,4)-pyridina-1(4.,5)-pyrazolacyclo-nonaphane-4^5-carboxamide] cannot be ordered by GI50: under 500 nM for the first, under 500 nM for the second.

First: CC(C)Nc1cc(Nc2ccnc(-c3cnn(S(=O)(=O)C4CC4)c3)n2)ncc1C(=O)N1CC(CS(=O)(=O)C(C)C)C1 [Example 130, (6-((2-(1-(cyclopropylsulfonyl)-1H-pyrazol-4-yl)pyrimidin-4-yl)amino)-4-(isopropylamino)pyri-din-3-yl)(3-((isopropylsulfonyl)methyl)azetidin-1-yl)methanone]
Second: CO[C@@H]1CCN(c2nccc(Nc3cc(NC(C)C)c(C(=O)N4CC(CS(=O)(=O)C(C)C)C4)cn3)n2)C[C@@H]1F [Example 131, (6-((2-(cis-3-fluoro-4-methoxypiperidin-1-yl)pyrimidin-4-yl)amino)-4-(isopropylamino)pyri-din-3-yl)(3-((isopropylsulfonyl)methyl)azetidin-1-yl)methanone]
The GI50 of the first is lower: under 500 nM for the first, 500 to 5000 nM for the second.
